Assay results reported in ChEMBL document CHEMBL2069206 (J Med Chem, 2012).

Tests used:
Adenosine receptor A2a [1] = molecular target: T1, Adenosine receptor A2a (Homo sapiens, UniProt P29274); test: Agonist activity at human A2A adenosine receptor expressed in CHO cells assessed as stimulation of forskolin-induced cAMP accumulation after 30 mins relative to NECA; format: functional, cell-based
Adenosine receptor A1 [2] = molecular target: T2, Adenosine receptor A1 (Homo sapiens, UniProt P30542); test: Displacement of 3[H]R-PIA from human A1 adenosine receptor expressed in CHO cells after 60 mins by Liquid scintillation analysis; format: cell-based
T2 sequence (P30542 whole entry): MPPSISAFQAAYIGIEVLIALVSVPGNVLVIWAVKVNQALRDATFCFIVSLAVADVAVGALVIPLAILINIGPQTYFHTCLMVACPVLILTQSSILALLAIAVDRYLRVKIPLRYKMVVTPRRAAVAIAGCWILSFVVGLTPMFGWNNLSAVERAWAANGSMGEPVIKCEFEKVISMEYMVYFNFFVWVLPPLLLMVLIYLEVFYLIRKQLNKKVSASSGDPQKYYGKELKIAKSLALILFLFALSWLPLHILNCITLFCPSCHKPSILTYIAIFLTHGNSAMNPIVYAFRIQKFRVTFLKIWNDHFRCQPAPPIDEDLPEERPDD

Adenosine receptor A2a [3] = molecular target: T1, Adenosine receptor A2a; test: Displacement of 3[H]CGS21680 from human A2A adenosine receptor expressed in HEK293 cells after 60 mins by Liquid scintillation analysis; format: cell-based
Adenosine receptor A2a [4] = molecular target: T1, Adenosine receptor A2a; test: Agonist activity at human A2A adenosine receptor expressed in CHO cells assessed as stimulation of forskolin-induced cAMP accumulation after 30 mins; format: functional, cell-based
Adenosine receptor A3 = molecular target: T3, Adenosine receptor A3 (Homo sapiens, UniProt P0DMS8); test: Displacement of [125I]I-AB-MECA from human A3 adenosine receptor expressed in CHO cells after 60 mins gamma counter; format: cell-based
T3 sequence (P0DMS8 whole entry): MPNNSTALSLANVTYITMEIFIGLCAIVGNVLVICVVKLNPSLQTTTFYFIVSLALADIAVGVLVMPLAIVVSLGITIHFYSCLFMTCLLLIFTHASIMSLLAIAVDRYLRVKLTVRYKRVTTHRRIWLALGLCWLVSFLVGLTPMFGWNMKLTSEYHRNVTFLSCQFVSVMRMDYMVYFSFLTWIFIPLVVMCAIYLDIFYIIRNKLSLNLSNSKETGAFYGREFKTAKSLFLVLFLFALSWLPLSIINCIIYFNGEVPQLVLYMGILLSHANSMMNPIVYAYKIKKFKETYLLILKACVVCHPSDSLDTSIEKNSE

[5] = molecular target: T4, Adenosine receptor A1 (Homo sapiens) (UniProt P30542); test: Agonist activity at human A1 adenosine receptor expressed in CHO cells assessed as inhibition of forskolin-induced cAMP accumulation after 30 mins relative to NECA; format: functional, cell-based
T4 sequence (whole entry): T2 sequence (P30542 whole entry)

[6] = molecular target: Adenosine receptor A2a (Rattus norvegicus) (UniProt P30543); conditions: HEK293, 10 uM
[7] = molecular target: T5, Adenosine receptor A1 (Rattus norvegicus) (UniProt P25099); conditions: CHO, 10 uM
T5 sequence (whole entry): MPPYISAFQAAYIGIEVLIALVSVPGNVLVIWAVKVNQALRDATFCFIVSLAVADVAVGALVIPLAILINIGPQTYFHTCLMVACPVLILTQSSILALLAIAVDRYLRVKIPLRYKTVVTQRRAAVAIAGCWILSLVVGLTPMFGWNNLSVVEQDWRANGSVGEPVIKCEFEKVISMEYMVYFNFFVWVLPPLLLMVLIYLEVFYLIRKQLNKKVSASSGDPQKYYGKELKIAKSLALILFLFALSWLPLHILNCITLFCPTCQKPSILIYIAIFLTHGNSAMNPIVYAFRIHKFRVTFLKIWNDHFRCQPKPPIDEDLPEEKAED

[8] = molecular target: T4, Adenosine receptor A1 (Homo sapiens); test: Partial agonist activity at human A1 adenosine receptor expressed in CHO cells assessed as inhibition of forskolin-induced cAMP accumulation after 30 mins relative to NECA; format: functional, cell-based
Adenosine receptor A1 [9] = molecular target: T2, Adenosine receptor A1; test: Partial agonist activity at human A1 adenosine receptor expressed in CHO cells assessed as inhibition of forskolin-induced cAMP accumulation after 30 mins; format: functional, cell-based

T1 sequence (P29274 whole entry): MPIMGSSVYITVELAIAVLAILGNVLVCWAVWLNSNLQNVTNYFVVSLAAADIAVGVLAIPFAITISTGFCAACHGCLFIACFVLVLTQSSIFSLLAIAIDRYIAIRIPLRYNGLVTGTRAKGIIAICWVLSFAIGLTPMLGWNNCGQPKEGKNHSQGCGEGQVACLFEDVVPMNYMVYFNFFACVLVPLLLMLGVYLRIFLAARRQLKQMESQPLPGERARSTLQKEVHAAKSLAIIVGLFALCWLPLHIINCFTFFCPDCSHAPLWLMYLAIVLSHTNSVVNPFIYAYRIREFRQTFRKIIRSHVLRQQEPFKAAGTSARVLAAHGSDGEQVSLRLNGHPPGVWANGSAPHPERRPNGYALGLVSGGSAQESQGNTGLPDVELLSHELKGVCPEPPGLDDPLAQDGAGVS
Sequence of Adenosine receptor A2a (Rattus norvegicus) (P30543 whole entry): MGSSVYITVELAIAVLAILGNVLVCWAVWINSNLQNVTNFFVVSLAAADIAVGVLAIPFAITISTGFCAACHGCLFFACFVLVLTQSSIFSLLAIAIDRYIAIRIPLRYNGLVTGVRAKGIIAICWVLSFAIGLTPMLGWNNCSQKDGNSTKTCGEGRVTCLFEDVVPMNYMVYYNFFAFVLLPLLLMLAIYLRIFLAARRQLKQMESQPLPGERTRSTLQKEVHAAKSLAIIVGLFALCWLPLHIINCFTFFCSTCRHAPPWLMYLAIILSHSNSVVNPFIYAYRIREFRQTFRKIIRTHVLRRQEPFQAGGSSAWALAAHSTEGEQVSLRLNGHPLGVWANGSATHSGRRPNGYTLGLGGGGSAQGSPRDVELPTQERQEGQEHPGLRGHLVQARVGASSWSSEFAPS

| SMILES | Ki (Adenosine receptor A1 [2]) [µM] | Ki (Adenosine receptor A2a [3]) [µM] | EC50 (Adenosine receptor A2a [4]) [µM] | Ki (Adenosine receptor A3) [µM] | Efficacy [5] [%] | also measured |
| --- | --- | --- | --- | --- | --- | --- |
| Nc1ncnc2c1ncn2[C@@H]1O[C@H](C(=O)NC2CCCC2)[C@@H](O)[C@H]1O | 0.027 | 0.65 | 0.225 | 0.07 | 92.5 | Efficacy (Adenosine receptor A2a [1]): 75% |
| Nc1ncnc2c1ncn2[C@@H]1O[C@H](C(=O)NC2CC2)[C@@H](O)[C@H]1O | 0.0019 | 0.05 | 0.0229 | 0.18 | 95.4 | – |
| CCNC(=O)[C@H]1O[C@@H](n2cnc3c(N)ncnc32)[C@H](O)[C@@H]1O | – | – | – | – | 100 | – |
| NCCCNC(=O)[C@H]1O[C@@H](n2cnc3c(N)ncnc32)[C@H](O)[C@@H]1O | > 10 | – | – | – | – | – |
| NCCNC(=O)[C@H]1O[C@@H](n2cnc3c(N)ncnc32)[C@H](O)[C@@H]1O | – | – | – | – | – | inhibition [6]: > 10%; inhibition [7]: > 10% |
| Nc1ncnc2c1ncn2[C@@H]1O[C@H](C(=O)NC2CCC2)[C@@H](O)[C@H]1O | – | 0.034 | 0.0268 | 0.07 | – | Efficacy (Adenosine receptor A2a [1]): 99%; Efficacy [8]: 65.2%; EC50 (Adenosine receptor A1 [9]): 0.0151 µM |
| Nc1ncnc2c1ncn2[C@@H]1O[C@H](C(=O)NCC(F)(F)F)[C@@H](O)[C@H]1O | […] | – | – | 0.7 | – | Efficacy [8]: 73.4% |
